In PubChem BioAssay (NCI):
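Step 1: Grow cells in 96-well plates. Step 2: Expose to compound for 48 hours at 5 concentrations. Step 3: Interpolate endpoints linearly; if unreached, use highest concentration. TGI is the concentration that stops growth completely.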 Where a SMILES comes first, the peptide text is derived from it. [ ]: non-standard residue; d: D form. The star is where a group is joined. hSer = N[CH](CCO)C(=O)O; Boc = CC(C)(C)OC(=O)*

What was measured:
Experiment in all cases: growth of human tumour cells (NCI), 48 h
[1] = system: MALME-3M melanoma
[2] = system: U251 CNS
[3] = system: MDA-MB-231 breast
[4] = system: MDA-MB-435
[5] = system: SK-MEL-5 melanoma
[6] = system: NCI-H23 lung
[7] = system: UACC-62 melanoma
[8] = system: NCI-H226 lung
[9] = system: HS 578T breast
[10] = system: SW-620 colon
[11] = system: A549 NSCLC
[12] = system: A498 renal
[13] = system: SF-295 CNS
[14] = system: SF-268 CNS
[15] = system: DU-145 prostate
[16] = system: ACHN renal
[17] = system: HT29 colon
[18] = system: COLO 205 colon
[19] = system: RPMI-8226 leukemia

| Structure (SMILES) | TGI [1] | TGI [2] | TGI [3] | TGI [4] | TGI [5] | TGI [6] | TGI [7] | TGI [8] | TGI [9] | TGI [10] | TGI [11] | TGI [12] | TGI [13] | TGI [14] | TGI [15] | TGI [16] | TGI [17] | TGI [18] | TGI [19] |
| --- | --- | --- | --- | --- | --- | --- | --- | --- | --- | --- | --- | --- | --- | --- | --- | --- | --- | --- | --- |
| N/C(CC/C(N)=N\O)=N\O | > 100 µM | > 100 µM | > 100 µM | > 100 µM | > 100 µM | > 100 µM | > 100 µM | > 100 µM | > 100 µM | > 100 µM | > 100 µM | > 100 µM | > 100 µM | > 100 µM | > 100 µM | > 100 µM | > 100 µM |  |  |
| CSc1nc2c(c(N(C)C)n1)C=Nn1c(nc3ccccc31)S2 | > 100 µM | > 100 µM | > 100 µM | > 100 µM | > 100 µM | > 100 µM | > 100 µM | > 100 µM | > 100 µM | > 100 µM | > 100 µM | > 100 µM | > 100 µM | > 100 µM | > 100 µM | > 100 µM | > 100 µM | > 100 µM | > 100 µM |
| CC(C)(C)C1CCC2c3c([nH]c4ccccc34)C3C(=O)N(c4cc(Br)cc(Br)c4)C(=O)C3C2C1 (centres undefined) | > 100 µM | 30.3 µM | 58.8 µM | 77.2 µM | > 100 µM | 63.3 µM | > 100 µM | 75.6 µM | 30.8 µM | > 100 µM | > 100 µM | 68.4 µM |  |  | > 100 µM | > 100 µM | > 100 µM | > 100 µM | > 100 µM |
| COc1ccc(-n2c(CCCC(=O)O)nc3c2C(=O)c2ccccc2C3=O)cc1 | 59.7 µM | > 100 µM | > 100 µM | 78.9 µM |  | > 100 µM | > 100 µM |  | > 100 µM | > 100 µM | > 100 µM | > 100 µM | > 100 µM | > 100 µM | > 100 µM | > 100 µM |  | > 100 µM | > 100 µM |
| O=c1cnn(C2OC(CO)C(O)C(F)C2O)c(=O)[nH]1 (centres undefined) | > 100 µM | > 100 µM | > 100 µM | > 100 µM | > 100 µM | > 100 µM | > 100 µM | > 100 µM | > 100 µM | > 100 µM | > 100 µM | > 100 µM | > 100 µM | > 100 µM | > 100 µM | > 100 µM | > 100 µM | > 100 µM | > 100 µM |
| COCCC(NC(=O)C(CC(C)C)NC(=O)OC(C)(C)C)C(N)=O (stereo not drawn) (Boc-Leu-[hSer](Me)-NH2; configuration not given here) | > 100 µM | > 100 µM | > 100 µM | > 100 µM | > 100 µM |  | > 100 µM | > 100 µM | > 100 µM | > 100 µM | > 100 µM | > 100 µM | > 100 µM | > 100 µM | > 100 µM | > 100 µM | > 100 µM | > 100 µM | > 100 µM |
| COC(=O)C1Cc2c(C)cccc2C1=O (centres undefined) | > 100 µM | > 100 µM | > 100 µM | > 100 µM | > 100 µM | > 100 µM | > 100 µM | > 100 µM | > 100 µM | > 100 µM | > 100 µM | > 100 µM | > 100 µM | > 100 µM | > 100 µM | > 100 µM | > 100 µM | > 100 µM | > 100 µM |
| CCOC(=O)C1(Cc2ccc(C)cc2)Cc2ccc(C)cc2C1=O (centres undefined) | > 97.1 µM | 35.6 µM | > 100 µM | 12.2 µM | 20.8 µM | > 94.7 µM | > 100 µM | > 92.4 µM | > 100 µM | > 100 µM | > 100 µM | > 79.1 µM | > 86.5 µM | > 100 µM | > 100 µM | > 100 µM | 49.1 µM | > 78.7 µM | 64.2 µM |
| C/C(=N\Nc1nc2cc(C)ccc2s1)c1ccccn1 | > 22 µM |  | 0.93 µM | > 64.5 µM | 4.35 µM | 11.8 µM |  | 9.11 µM | 39 µM | > 20.2 µM | > 31.6 µM | 10.6 µM | > 40.9 µM | 9.14 µM | 5.65 µM | 11 µM | 6.69 µM |  | 3.52 µM |
| CC12CC3c4ccccc4CN1C3(c1ccccc1)OC2=O (centres undefined) | > 100 µM | > 100 µM | > 100 µM | > 100 µM | > 100 µM | > 100 µM | > 100 µM | > 100 µM | > 100 µM | > 100 µM | > 100 µM | > 100 µM | > 100 µM | > 100 µM | > 100 µM | > 100 µM | > 100 µM | > 100 µM |  |
| C[N+]1(C)C2Cc3ccccc3C1Cc1ccccc12 | > 100 µM | > 100 µM | > 100 µM | > 100 µM | > 100 µM | > 100 µM | > 100 µM | > 100 µM | > 100 µM | > 100 µM | > 100 µM | > 100 µM | > 100 µM | > 100 µM | > 100 µM | > 100 µM | > 100 µM | > 100 µM | > 100 µM |
| COc1ccc2c(c1O)-c1c(OC)c(OC)cc3c1[C@H](C2)[N+](C)(C)CC3 | > 100 µM | > 100 µM | > 100 µM | > 100 µM | > 100 µM | > 100 µM | > 100 µM | > 100 µM | > 100 µM | > 100 µM | > 100 µM | > 100 µM | > 100 µM | > 100 µM | > 100 µM | > 100 µM | > 100 µM | > 100 µM | > 100 µM |
| Cc1c2c(n3c(nc4ccccc43)c1C#N)N(c1ccc(Cl)cc1)CC2 | > 100 µM | > 100 µM | > 100 µM | > 100 µM | > 100 µM | > 100 µM | > 100 µM | > 100 µM | > 100 µM | > 100 µM | > 100 µM | > 100 µM | > 100 µM | > 100 µM | > 100 µM | > 100 µM | > 100 µM | > 100 µM |  |
